Data: publication PMC13047053, “Crystal structure of human INPP5K with an allosteric inhibitor reveals the structural basis for species specific potency” (Scientific Reports, 2026)

Experiments:
[1] = target: guinea pig INPP5K (Cavia porcellus, UniProt H0V8T7); assay: Inorganic phosphate detection assay for phosphatase inhibition; assay type: biochemical; details: 20 µM diC8-PI(3,4,5)P3, 20 min
Description: (§1) The protein purification is described in detail elsewhere. Briefly, full-length human INPP5K (amino acids 1–448, UniProt ID: Q9BT40), rat INPP5K (aa 1–446, UniProt ID: Q9R0B6), mouse INPP5K (aa 1–468, UniProt ID: Q8C5L6), hamster INPP5K (aa 1–453, UniProt ID: G3HTF6), guinea pig INPP5K (aa 1–473, UniProt ID: H0V8T7) containing an N-terminal FLAG-tag, full-length human SHIP2 (aa 1–1 258) containing a C-terminal FLAG-tag, and full-length human PIPP (amino acids 1–1 006) containing an N-terminal His8-tag were all cloned into the pcDNA3.4 expression vector and transiently expressed in Expi293 cells (Thermo Fisher Scientific). The PH domain of human TAPP1 (amino acids 180–404) containing an N-terminal GST-tag was expressed in a pGEX6P1 expression vector (GE Healthcare) in E. coli strain BL21 ((Merck KGaA, Darmstadt, Germany)), following IPTG induction at 37 °C for 5 h. All the FLAG-tagged INPP5Ks and hSHIP2 were purified using affinity columns containing DDDDK-tagged protein purification gel (MBL, Medical & Biological Laboratories Co., Ltd., Tokyo, Japan), followed by size-exclusion chromatography with Superdex 200 columns (GE Healthcare). His8-tagged hPIPP was purified using Ni–NTA Superflow (Qiagen) and Superdex 200 columns. The GST-tagged hTAPP1 domain was purified using a Glutathione Sepharose 4B (GE Healthcare) and Superdex 200 columns. The purity of the protein obtained was evaluated using SDS-PAGE.
(§2) The release of inorganic phosphate was measured using a PiPer Phosphate Assay Kit (Thermo Fisher Scientific), according to the manufacturer’s instructions, but with some modifications. Enzyme reactions were performed in a final volume of 10 µL per well in a 384-well nonbinding black plates (Greiner Bio-One International, GmbH, Kremsmünster, Austria). The reaction mixtures containing 20 µM diC8-PI(3,4,5)P₃ and each enzyme (human INPP5K, mouse INPP5K, rat INPP5K, hamster INPP5K, guinea pig INPP5K, human SHIP2, or human PIPP) in reaction buffer (50 mM Tris–HCl pH 7.0, 150 mM NaCl, 7.5 mM MgCl₂, 0.03% Igepal CA-630, 0.03% gelatin), with or without various concentrations of inhibitor, were incubated for 20 min at room temperature. The reactions were then stopped and detection reactions were initiated by adding 5 µL of detection mix 1 (60 mM EDTA, 12 U/mL maltose phosphorylase, and 0.6 mM maltose in 100 mM Tris–HCl pH 8.0). After incubation for 60 min at room temperature, 5 µL of detection mix 2 (8 U/mL glucose oxidase, 0.8 U/mL HRP, and 100 µM Amplex Red in 100 mM Tris–HCl pH 8.0) was added, and the mixture was incubated for a further 30 min at room temperature in the dark. The fluorescence generated was measured using an Envision plate reader at 531/590 nm (excitation/emission), and the percentage inhibition was calculated as described above.

[2] = target: T1, human PIPP (Homo sapiens, UniProt Q15735); assay: as above; assay type: biochemical; details: 20 µM diC8-PI(3,4,5)P3, 20 min
T1 construct: full-length human PIPP (amino acids 1–1 006) containing an N-terminal His8-tag; His8 (N); made in house; host or cells: Expi293 cells (pcDNA3.4, transient)
T1 sequence (Q15735 1-1006): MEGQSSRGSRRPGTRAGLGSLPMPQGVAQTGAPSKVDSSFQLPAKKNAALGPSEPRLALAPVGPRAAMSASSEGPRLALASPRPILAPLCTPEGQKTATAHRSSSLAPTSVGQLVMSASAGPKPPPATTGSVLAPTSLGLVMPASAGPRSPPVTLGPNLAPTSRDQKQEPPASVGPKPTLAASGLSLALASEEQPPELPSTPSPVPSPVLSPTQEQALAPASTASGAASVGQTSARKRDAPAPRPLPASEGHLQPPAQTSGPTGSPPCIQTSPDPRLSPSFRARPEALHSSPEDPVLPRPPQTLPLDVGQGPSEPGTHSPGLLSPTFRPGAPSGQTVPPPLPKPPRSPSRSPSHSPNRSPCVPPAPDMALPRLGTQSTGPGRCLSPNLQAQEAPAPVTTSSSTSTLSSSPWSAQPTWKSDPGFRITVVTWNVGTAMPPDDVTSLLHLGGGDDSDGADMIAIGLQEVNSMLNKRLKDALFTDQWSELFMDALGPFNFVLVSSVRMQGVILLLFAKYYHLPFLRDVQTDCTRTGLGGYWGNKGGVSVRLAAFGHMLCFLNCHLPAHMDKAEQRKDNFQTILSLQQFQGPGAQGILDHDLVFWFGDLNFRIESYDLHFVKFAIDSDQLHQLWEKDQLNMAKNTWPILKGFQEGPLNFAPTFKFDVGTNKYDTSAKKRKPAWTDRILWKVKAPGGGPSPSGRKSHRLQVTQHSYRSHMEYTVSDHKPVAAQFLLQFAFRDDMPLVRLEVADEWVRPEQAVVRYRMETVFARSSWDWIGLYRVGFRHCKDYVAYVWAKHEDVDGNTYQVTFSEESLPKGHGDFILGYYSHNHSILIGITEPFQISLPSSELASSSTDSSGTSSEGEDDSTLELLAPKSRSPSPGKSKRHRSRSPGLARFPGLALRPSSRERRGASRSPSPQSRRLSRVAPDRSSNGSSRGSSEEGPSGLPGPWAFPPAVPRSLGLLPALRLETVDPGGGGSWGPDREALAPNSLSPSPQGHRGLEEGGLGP
Description: as §1, §2

guinea pig INPP5K, sequence (H0V8T7 entry or part of it): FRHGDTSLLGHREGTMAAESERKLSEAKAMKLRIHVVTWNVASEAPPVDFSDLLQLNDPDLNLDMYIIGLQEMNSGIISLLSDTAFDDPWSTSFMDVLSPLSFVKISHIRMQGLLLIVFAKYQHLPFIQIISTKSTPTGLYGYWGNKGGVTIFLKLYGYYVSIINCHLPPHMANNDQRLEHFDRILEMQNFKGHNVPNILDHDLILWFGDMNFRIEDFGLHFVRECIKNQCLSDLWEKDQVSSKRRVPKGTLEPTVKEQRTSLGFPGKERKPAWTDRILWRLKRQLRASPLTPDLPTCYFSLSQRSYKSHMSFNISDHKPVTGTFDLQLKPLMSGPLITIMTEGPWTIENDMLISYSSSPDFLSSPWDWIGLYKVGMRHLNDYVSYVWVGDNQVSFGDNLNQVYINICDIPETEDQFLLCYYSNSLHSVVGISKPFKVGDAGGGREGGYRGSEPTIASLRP

CC(C)c1sc(NC(=O)c2ccccc2)c(C(=O)O)c1-c1ccccc1 [CPD-1]
IC50 [1]: 59 µM
IC50 [2]: > 100 µM
